Reference: paper PMC11173618, “C2-Symmetrical Terphenyl Derivatives as Small Molecule Inhibitors of Programmed Cell Death 1/Programmed Death Ligand 1 Protein–Protein Interaction” (Molecules, 2024)

Key:
[1] = biological target: T1, PD-1/PD-L1 complex (Homo sapiens, UniProt Q9NZQ7); experiment: HTRF assay of PD-1/PD-L1 complex inhibition (cis-bio kit); assay type: binding; settings: 1 h, scouting mode, 5 nM PD-L1, 50 nM PD-1, read-out: HTRF [%] (percentage of dissociated PD-1/PD-L1 complex)
T1 construct: purchased cis-bio
T1 sequence (Q9NZQ7 19-238 limits assumed, one chain of several): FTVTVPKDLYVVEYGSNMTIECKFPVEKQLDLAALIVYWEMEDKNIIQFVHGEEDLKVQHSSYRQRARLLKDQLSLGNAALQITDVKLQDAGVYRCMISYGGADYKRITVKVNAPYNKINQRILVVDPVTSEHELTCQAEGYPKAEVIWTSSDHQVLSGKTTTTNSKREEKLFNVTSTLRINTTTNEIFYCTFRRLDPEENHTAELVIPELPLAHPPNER
Method: All synthesized molecules were tested in the homogeneous time-resolved fluorescence (HTRF) assay to assess their activity as inhibitors of the PD-1/PD-L1 complex (Table 1, Table 2 and Table 3). This evaluation was conducted in scouting modes, employing concentrations of 5 μM and 0.5 μM. Based on the obtained measurements, the IC50 values were estimated for each tested compound.
The certified cis-bio assay kit was used to perform the HTRF assay. Following the standard protocol, the measurement was carried out at a 20 µL final volume with a 5 nM concentration of PD-L1 and a 50 nM concentration of PD-1 in the final formulation. […] The plate was incubated for 1 h and then read on an HTRF-certified Tecan Spark 20M microplate reader. Output data were subjected to background subtraction on negative control (without PD-1) and normalization in correlation to the positive control (without inhibitor) and were then averaged. The resulting data points were then fitted with Hill’s equation to generate IC50 using Mathematica 12. […]

[2] = biological target: T2, human PD-L1 protein (amino acids 18-134) (Homo sapiens, UniProt Q9NZQ7); experiment: 1H NMR binding assay; settings: ligand/protein 1:1, 0.2 mM PD-L1, 300 K
T2 construct: human PD-L1 protein (amino acids 18-134); made in house; host or cells: E. coli BL21 (pET-21b)
T2 sequence (Q9NZQ7 18-134): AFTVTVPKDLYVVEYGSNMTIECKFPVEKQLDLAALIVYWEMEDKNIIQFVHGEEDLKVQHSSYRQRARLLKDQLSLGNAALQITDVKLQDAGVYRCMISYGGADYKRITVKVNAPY
Method: NMR spectra were recorded in 10 mM Tris, pH 8.0 20 mM NaCl containing 10% (v/v) of D2O added to the samples to provide the lock signal. Water suppression was carried out using the WATERGATE sequence. All the spectra were recorded at 300 K using a Bruker AVANCE 600 MHz spectrometer (Bruker, Billerica, MA, USA) with the cryoplatform.
The spectra were recorded at the ligand/protein ratio of 1:1 unless stated otherwise. The samples were prepared by adding small amounts of a 50 mM ligand stock solution in DMSO to the protein solution (0.20 mL) of PD-L1 fragment at a concentration of 0.2 mM. […] Spectra were visualized using TopSpin 4.0.2.

COc1cccc(CNCCNC(C)=O)c1OCc1cccc(-c2cccc(-c3cccc(COc4c(CNCCNC(C)=O)cccc4OC)c3)c2C)c1 [Compound 8b, N,N’-(((((((2′-methyl-[1,1′:3′,1′′-terphenyl]-3,3′′-diyl)bis(methylene))bis(oxy))bis(3-methoxy-2,1-phenylene))bis(methylene))bis(azanediyl))bis(ethane-2,1-diyl))diacetamide]
inhibition at 0.5 µM ([1]; inhibitor 0.5 µM): 88.9 ± 3.8%
inhibition at 5 µM ([1]; inhibitor 5 µM): 73.6 ± 5.3%
Binding to PD-L1 by 1H NMR (broadening of PD-L1 proton signals) [2]: affinity of the test compounds for the PD-L1 protein is confirmed
